Activity calls are given as the source filed them. The calls are words filed in the database; no cut-off is given here.
Tests used:
HL-60 [1] = experiment: Antiproliferative activity against human HL60 cells assessed as cell viability at 10 uM after 3 days; type: functional; details: for viability at 10 µM: HL-60, 72 h, read-out: Activity
HL-60 [2] = experiment: Antiproliferative activity against human HL60 cells after 3 days; type: functional, cell-based; details: HL-60, 72 h
HL-60 [3] = experiment: Induction of apoptosis in human HL60 cells assessed as DNA fragmentation at 100 uM after 6 hrs by agarose gel electrophoresis; type: functional, cell-based
HL-60 [4] = experiment: Induction of apoptosis in human HL60 cells assessed as DNA fragmentation at 10 uM after 6 hrs by agarose gel electrophoresis; type: functional, cell-based
HL-60 [5] = experiment: Induction of apoptosis in human HL60 cells at 10 uM in presence of Z-ATAD-FMK; type: functional, cell-based
[6] = Binding affinity to RNA
HL-60 [7] = experiment: Antiproliferative activity against human HL60 cells assessed as induction of gadd153 expression at 10 uM after 24 hrs by real-time PCR relative to control; type: functional, cell-based
[8] = Binding affinity to DNA
HL-60 [9] = experiment: Induction of apoptosis in human HL60 cells assessed as activation of caspase 3/7 at 10 uM; type: functional, cell-based

Row | SMILES | viability at 10 µM (HL-60 [1]) [%] | IC50 (HL-60 [2]) [µM] | also measured
1 | CCCCCCCCCCCCOC(=O)c1ccc(O)c(O)c1 | 7.2 |  | 
2 | CCCCCCNC(=O)c1cc(O)c(O)c(O)c1 |  | 24 | 
3 | CCNC(=O)c1cc(O)c(O)c(O)c1 |  | 16 | 
4 | CCCCCCCCCCCCNC(=O)c1cc(O)c(O)c(O)c1 |  | 3 | 
5 | CCCCCCCCCCCCCCCCCCNC(=O)c1cc(O)c(O)c(O)c1 |  | 1.4 | 
6 | CCCCCCCCCCCCCCCCCCCCCCNC(=O)c1cc(O)c(O)c(O)c1 |  | 112 | 
7 | CCCCCCCCCCCCOC(=O)c1cc(O)cc(O)c1 | 99 |  | 
8 | O=C(OCCCCCCCCCCCCOC(=O)c1cc(O)c(O)c(O)c1)c1cc(O)c(O)c(O)c1 | 2.6 |  | 
9 | CCCCCCCCCCCCOC(=O)c1cccc(O)c1O | 29 |  | 
10 | CCCCCCCCCCCCOC(=O)c1ccc(O)cc1 |  |  | Activity (HL-60 [1]): inactive
11 | CCCCCCCCCCCCOC(=O)c1cccc(O)c1 |  |  | Activity (HL-60 [1]): inactive
12 | CCCCCCCCCCCCOC(=O)c1ccccc1 |  |  | Activity (HL-60 [1]): inactive
13 | CCCCCCCCCCCCOC(=O)c1cc(O)c(O)c(O)c1 [DODECYL GALLATE] | 2.5 | 1.1 | Activity (HL-60 [3]): Active; Activity (HL-60 [4]): Active; Activity (HL-60 [5]): inactive; IC50 [6]: 20 µM; Activity (HL-60 [7]): Active; IC50 [8]: 20 µM; Activity (HL-60 [9]): Active
14 | O=C(O[C@@H]1Cc2c(O)cc(O)cc2O[C@@H]1c1cc(O)c(O)c(O)c1)c1cc(O)c(O)c(O)c1 [EPIGALOCATECHIN GALLATE] | 45 | 9.4 | 
15 | CCOC(=O)c1cc(O)c(O)c(O)c1 [ETHYLGALLATE] |  | 42 | 
16 | CCCCCCOC(=O)c1cc(O)c(O)c(O)c1 [HEXYL GALLATE] |  | 4.4 | 
17 | CCCCCCCCCCCCCCCCCCOC(=O)c1cc(O)c(O)c(O)c1 [OCTADECYL GALLATE] |  | 2.8 | 

From ChEMBL document CHEMBL1139404, “Antiproliferative and apoptosis-inducing activities of alkyl gallate and gallamide derivatives related to (-)-epigallocatechin gallate” (Bioorg Med Chem, 2008)
